Results: US20240116985A1, “STAPLED PEPTIDES AND METHODS THEREOF” (priority 2020, published 2024)
Values after ≈ are worked out from the molar mass of the structure shown. Read-outs that look alike come from different tables or passages of the source.

Assays:
CHI Log D procedure = format: physicochemical; conditions: for CHI Log D: pH 7.4; for chromatographic logD: pH 7.4, CHI Log D
Solubility in PBS = format: physicochemical
In short: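 Steps: ultracentrifuge the peptide PBS solution, inject the supernatant on HPLC, inject a 50 μM peptide DMSO solution as reference, then calculate solubility as area ratio (PBS/DMSO) × 50 uM.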

[1] = molecular target: T1, full-length beta-Catenin (Uniprot ID P35222) (Homo sapiens, UniProt P35222); assay: Fluorescence polarization IC50 (beta-catenin / 5FAM-TCF4 10-53 competition); format: binding
T1 construct: 10 nM full-length beta-Catenin (Uniprot ID P35222)
T1 sequence (P35222 1-781): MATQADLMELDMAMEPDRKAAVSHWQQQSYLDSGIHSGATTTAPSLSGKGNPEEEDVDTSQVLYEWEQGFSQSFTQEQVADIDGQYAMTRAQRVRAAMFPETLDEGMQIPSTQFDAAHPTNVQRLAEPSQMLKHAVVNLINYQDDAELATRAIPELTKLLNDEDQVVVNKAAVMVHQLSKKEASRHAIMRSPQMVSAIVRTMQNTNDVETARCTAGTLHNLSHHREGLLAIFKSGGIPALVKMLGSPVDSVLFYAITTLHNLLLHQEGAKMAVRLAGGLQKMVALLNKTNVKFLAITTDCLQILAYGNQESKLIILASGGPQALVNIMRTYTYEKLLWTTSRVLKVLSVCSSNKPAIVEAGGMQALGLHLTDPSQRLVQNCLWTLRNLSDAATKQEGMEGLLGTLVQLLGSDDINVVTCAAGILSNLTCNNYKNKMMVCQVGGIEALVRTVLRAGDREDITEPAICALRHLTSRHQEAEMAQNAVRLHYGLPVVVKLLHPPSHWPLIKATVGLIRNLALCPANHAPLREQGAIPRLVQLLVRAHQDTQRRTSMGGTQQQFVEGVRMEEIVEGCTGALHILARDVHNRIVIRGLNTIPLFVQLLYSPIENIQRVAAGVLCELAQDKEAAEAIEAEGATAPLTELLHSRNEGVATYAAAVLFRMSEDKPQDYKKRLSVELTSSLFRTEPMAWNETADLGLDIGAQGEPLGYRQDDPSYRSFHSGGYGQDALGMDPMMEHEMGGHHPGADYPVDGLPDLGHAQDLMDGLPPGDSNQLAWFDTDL

[2] = Table E2-1, read-out: beta-Catenin FP IC50
[3] = fluorescence polarization, beta-catenin, read-out: FP EC50

Compound | CHI Log D (CHI Log D procedure) | Solubility (Solubility in PBS) [µM] | IC50 [1, 2] [nM] | IC50 [1, 3] [nM] | chromatographic logD (CHI Log D procedure) | Solubility (Solubility in PBS; Solubility (uM)) [µM]
CC(=O)N1CCC[C@]12CC=CCCCC1(CCCC=CCCCCCC[C@@](C)(C(=O)N[C@@H](Cc3ccccc3)C(=O)N[C@@H](Cc3csc4ccccc34)C(=O)N[C@@H](Cc3c[nH]cn3)C(N)=O)NC(=O)[C@H](CCC(N)=O)NC(=O)[C@H](Cc3ccccc3)NC(=O)[C@H](C)NC(=O)[C@H](C)NC(=O)[C@H](CC(=O)O)NC(=O)[C@H](CC(=O)O)NC1=O)NC(=O)[C@H](C)NC(=O)[C@H](CC(=O)O)NC2=O (stereo partly drawn) [I-360, Ac-PL3-Asp-Ala-B5-Asp-Asp-Ala-Ala-Phe-Gln-S8-Phe-BztA-His-NH2] | 2.017 | 44 (≈ 80.8 µg/mL) | 146 | 146 | – | –
CC(=O)N1CCC[C@]12CC=CCCCC1(CCCC=CCCCCCC[C@@](C)(C(=O)N[C@@H](Cc3ccccc3)C(=O)N[C@@H](Cc3csc4ccccc34)C(=O)N[C@@H](Cc3c[nH]cn3)C(N)=O)NC(=O)[C@H](CCC(N)=O)NC(=O)[C@H](Cc3ccccc3)NC(=O)[C@H](C)NC(=O)[C@H](C)NC(=O)[C@H](CC(=O)O)NC(=O)[C@H](CC(=O)O)NC1=O)NC(=O)[C@H](C)NC(=O)[C@H](CC(=O)O)NC2=O (stereo partly drawn) [I-361, Ac-PL3-Asp-Ala-B5-Asp-Asp-Ala-Ala-Phe-Gln-S8-Phe-BztA-His-NH2] | 2.058 | 46 (≈ 84.5 µg/mL) | 42 | 42 | – | –
CC(=O)N1CCC[C@]12CC=CCCCC1(CCCC=CCCCCCC[C@@](C)(C(=O)N[C@@H](Cc3c[nH]cn3)C(=O)N[C@@H](Cc3csc4ccccc34)C(=O)N[C@@H](CCC(N)=O)C(N)=O)NC(=O)[C@H](C)NC(=O)[C@H](Cc3ccccc3)NC(=O)[C@H](C)NC(=O)[C@H](C)NC(=O)[C@H](CC(=O)O)NC(=O)[C@H](CC(=O)O)NC1=O)NC(=O)[C@H](C)NC(=O)[C@H](CC(=O)O)NC2=O (stereo partly drawn) [I-362, Ac-PL3-Asp-Ala-B5-Asp-Asp-Ala-Ala-Phe-Ala-S8-His-BztA-Gln-NH2] | – | – | 3660 | – | 1.44 | 47 (≈ 82.7 µg/mL)
CC(=O)N1CCC[C@]12CC=CCCCC1(CCCC=CCCCCCC[C@@](C)(C(=O)N[C@@H](Cc3ccccc3)C(=O)N[C@@H](Cc3csc4ccccc34)C(=O)N[C@@H](CCC(N)=O)C(N)=O)NC(=O)[C@H](C)NC(=O)[C@H](Cc3ccccc3C)NC(=O)[C@H](C)NC(=O)[C@H](C)NC(=O)[C@H](CC(=O)O)NC(=O)[C@H](CC(=O)O)NC1=O)NC(=O)[C@H](C)NC(=O)[C@H](CC(=O)O)NC2=O (stereo partly drawn) [I-365, Ac-PL3-Asp-Ala-B5-Asp-Asp-Ala-Ala-2MeF-Ala-S8-Phe-BztA-Gln-NH2] | 2.038 | 48 (≈ 85.6 µg/mL) | 2720 | 2720 | – | –
CC(=O)N1CCC[C@]12CC=CCCCC1(CCCC=CCCCCCC[C@@](C)(C(=O)N[C@@H](Cc3ccc(C)cc3)C(=O)N[C@@H](Cc3csc4ccccc34)C(=O)N[C@@H](CCC(N)=O)C(N)=O)NC(=O)[C@H](C)NC(=O)[C@H](Cc3ccccc3)NC(=O)[C@H](C)NC(=O)[C@H](C)NC(=O)[C@H](CC(=O)O)NC(=O)[C@H](CC(=O)O)NC1=O)NC(=O)[C@H](C)NC(=O)[C@H](CC(=O)O)NC2=O (stereo partly drawn) [I-369, Ac-PL3-Asp-Ala-B5-Asp-Asp-Ala-Ala-Phe-Ala-S8-4MeF-BztA-Gln-NH2] | – | – | 2310 | – | 1.66 | 40 (≈ 71.4 µg/mL)
CC(=O)N1CCC[C@]12CC=CCCCC1(CCCC=CCCCCCC[C@@](C)(C(=O)N[C@@H](Cc3ccccc3)C(=O)N[C@@H](Cc3csc4ccccc34)C(=O)N[C@@H](CCC(N)=O)C(N)=O)NC(=O)[C@H](C)NC(=O)[C@H](Cc3ccc4ccccc4c3)NC(=O)[C@H](C)NC(=O)[C@H](C)NC(=O)[C@H](CC(=O)O)NC(=O)[C@H](CC(=O)O)NC1=O)NC(=O)[C@H](C)NC(=O)[C@H](CC(=O)O)NC2=O (stereo partly drawn) [I-370, Ac-PL3-Asp-Ala-B5-Asp-Asp-Ala-Ala-2NapA-Ala-S8-Phe-BztA-Gln-NH2] | – | – | 1560 | – | 2.18 | 47 (≈ 85.5 µg/mL)
